{"source": "patent US9534221B2", "about": "“Targeting the steroidogenic pathway for treating and/or preventing allergic diseases” (National Jewish Health, priority 2013, dated 2017)", "key": {"CD4 T cells": {"tested_on": "CD4 T cells", "experiment": "Th1, Th2, Th17 differentiation of naive CD4 T cells in vitro", "format": "cell-based, mouse", "method": "Levels of IL-4, IL-13, IL-17A, and IFN-γ in cell culture supernatants were measured by ELISA (eBioscience, San Diego, Calif.) as described by the manufacturer. Pregnenolone levels in serum and cell culture supernatants were measured by ELISA (ALPCO Diagnostics, Salem, N.H.), as described by the manufacturer. Differentiation of Th1, Th2, or Th17 cells was performed as previously described with minor changes (Ashino, S., et al. Intl. Immunol. 22:503-513 (2010)). CD4^+CD45RB^+ T cells were isolated from naive TCR-transgenic mice (OT II mice) spleen using a cell sorter (MoFlo XDP, Beckman Coulter). In the presence of mitomycin-C-treated spleen cells, 5 μg/ml OVA323-339 peptide, and the inhibitor AMG ([…]), isolated naive CD4 T cells were cultured with rmIL-2 (10 ng/ml, R/D Systems), rmIL-12 (10 ng/ml, Peprotech), rmIFN-γ (5 ng/ml, Peprotech), and anti-IL-4 mAbs (10 μg/ml, eBioscience) to induce Th1 cell differentiation; with rmIL-2 (10 ng/ml, R/D Systems), rmIL-4 (5 ng/ml, Peprotech), and anti-IFN-γ mAb (10 μg/ml, eBioscience) for differentiation of Th2 cells; and […], Peprotech), anti-IL-4 mAb (10 μg/ml, eBioscience), and anti-IFN-γ mAb (10 μg/ml, eBioscience) for differentiation of Th17 cells. After 6 days of culture, the cells were washed with fresh medium and restimulated with anti-CD3/anti-CD28 for 24 hrs for assay of cytokine production. The cells were collected for quantitative RT-PCR and Western blot. In some experiments (for transduction experiment), the cells were cultured under Th1, Th2, and Th17 polarizing conditions for 5 days as described in Methods. Cultured cells were lysed as previously described (Ohnishi, H., et al. J. Allergy Clin. Immunol. 121:864-871 (2008)). Lysates were resolved by means of SDS-PAGE and transferred to nitrocellulose membranes. Proteins were detected using antibodies specific for Cyp11a1 (LifeSpan Biosciences. Seattle, Wash.) followed by chemiluminescence detection (GE Healthcare, Little Chalfont, UK). RNA was extracted from jejunal tissue homogenates or from CD4 T cells cultured in vitro using Trizol (Invitrogen). cDNA was generated using the iScript cDNA synthesis kit (Bio-Rad Laboratories, Hercules, Calif.). Quantitative real-time PCR was performed on the ABI Prism 7300 sequence detection system (Applied Biosystems, Foster City, Calif.). All primers and probes used were purchased as Tagman Gene Expression Assays from Applied Biosystems. Fold change was calculated using the Delta Delta cycle threshold (ΔΔCT) method."}, "CD8+ T cells": {"tested_on": "CD8+ T cells", "experiment": "Flow cytometric intracellular staining of IFN-γ and IL-13 in CD8+ T cells", "format": "cell-based, mouse", "method": "CD8^+ effector memory T cells were generated in vitro as previously described (Miyahara, N. et al. J. Immunol. 172, 2549-2558 (2004); Miyahara, N. et al. J. Immunol. 174, 4979-4984 (2005)). In brief, mononuclear cells (MNCs) were processed from the spleens of OT-1 mice followed by stimulation of 1 μg/ml SIINFEKL peptide (SEQ ID NO:1) was used to stimulate cells for 1.5 hours. Two days after culture, living cells were re-isolated using histopaque and cultured in complete RPMI 1640 medium that contained recombinant mouse IL-2 (20 ng/ml) (R&D, Minneapolis, Minn.) or IL-2+IL-4 (20 ng/ml) (Peprotech, Rocky Hill, N.J.). For some experiments, AMG was added into the medium together with IL-2 or IL-2+IL-4. Medium with cytokines was changed every day for a further 4 days. The cells were then re-stimulated with 1 μg/ml SIINFEKL (SEQ ID NO:1) in medium containing 2 μM monensin (Calbiochem, La Jolla, Calif.) for 4 hours. […]\nFor intracellular staining, 1×10^6/ml cells were washed twice with PBS containing 1% BSA, stimulated with 1 μg/ml SIINFEKL in the presence of 2 μM monensin at 37° C. for 4 hours. After fixation with 4% paraformaldehyde (Electron Microscopy Sciences, Hatfield, Pa.) and permeabilization with 0.1% saponin (Sigma, St. Louis, Mo.), cells were washed twice with PBS containing 1% BSA, then incubated with anti-mouse CD16/CD32 (2.4G2) (BD Bioscience, San Jose, Calif.) at 4° C. for 5 minutes, then stained with FITC labeled anti-mouse IFN-γ (XMG 1.2) (eBioscience, San Diego, Calif.) or PerCP-Cy5.5 labeled anti-mouse […] (XMG 1.2) (eBioscience) and PE-labeled anti-mouse IL-13 (eBio13A) (eBioscience). For some experiments, fixed cells were stained with biotin labeled rabbit anti-Cyp11a1/p450 cc polyclonal antibody (Bioss, Woburn, Mass.) followed by PE-Cy5 labeled streptavidin (PE-Cy5-SAv) (eBioscience). Cell staining was monitored on a FACSCalibur (BD Bioscience) and analyzed using Flowjo software (Tree Star, Inc, Ashland, Oreg.)."}, "[1]": {"conditions": "polarized Th1, Th2 or Th17 cells, AMG 400 μM"}, "[2]": {"conditions": "IL-2+AMG (500 μM)+SIINFEKL 1 μg/ml"}, "[3]": {"conditions": "IL-2+IL-4+AMG (500 μM), no SIINFEKL"}, "[4]": {"conditions": "SIINFEKL and IL-2+IL-4, different concentrations of AMG"}}, "note": "Values joined by “and” are separate entries in the source; they are usually repeats but may differ in a detail not shown here. Equal entries are not always repeated.", "data": [{"compound": "CCC1(c2ccc(N)cc2)CCC(=O)NC1=O", "note": "(stereo not shown) [AMG, aminoglutethimide]", "values": [{"measurement": "IFNG mRNA expression", "setting": "CD4 T cells; Th1 cells", "value": "no significant effects"}, {"measurement": "Pregnenolone levels in culture supernates", "setting": "CD4 T cells; Th2 cells, AMG 400 μM", "value": "significantly decreased"}, {"measurement": "Pregnenolone levels in culture supernates", "setting": "CD4 T cells; Th17 cells, AMG 400 μM", "value": "the decreases did not reach statistical significance"}, {"measurement": "Cyp11a1 mRNA expression levels", "setting": "CD4 T cells; [1]", "value": "did not suppress"}, {"measurement": "Cyp11a1 protein expression levels", "setting": "CD4 T cells; [1]", "value": "did not suppress"}, {"measurement": "IFN-γ levels in culture supernatants", "setting": "CD4 T cells; polarized Th1 cell cultures", "value": "not affected"}, {"measurement": "T-bet mRNA expression", "setting": "CD4 T cells; polarized Th1 cells, 400 μM", "value": "did not have any effect"}, {"measurement": "IL-13 levels in culture supernatants", "setting": "CD4 T cells; polarized Th2 cell cultures", "value": "decreased"}, {"measurement": "IL13 mRNA", "setting": "CD4 T cells; polarized Th2 cells", "value": "decreased"}, {"measurement": "GATA3 mRNA expression", "setting": "CD4 T cells; polarized Th2 cells, 400 μM", "value": "did not have any effect"}, {"measurement": "IL-17A levels in culture supernatants", "setting": "CD4 T cells; polarized Th17 cell cultures", "value": "decreased"}, {"measurement": "IL17A mRNA", "setting": "CD4 T cells; polarized Th17 cells", "value": "decreased"}, {"measurement": "RORγt mRNA expression", "setting": "CD4 T cells; polarized Th17 cells, 400 μM", "value": "did not have any effect"}, {"measurement": "Overall suppressive or toxic effect on CD8+ T cell cultures", "setting": "CD8+ T cells; AMG in culture", "value": "did not have an overall suppressive or toxic effect"}, {"measurement": "IFN-γ single positive cells", "setting": "CD8+ T cells; [2]", "value": "78.3 +/− 8.3%"}, {"measurement": "IFN-γ+IL13+ double positive cells", "setting": "CD8+ T cells; [2]", "value": "9.0 +/− 2.7%"}, {"measurement": "IL-13 single positive cells", "setting": "CD8+ T cells; [2]", "value": "0.1 +/− 0.1%"}, {"measurement": "IFN-γ+IL13+ double positive cells", "setting": "CD8+ T cells; IL-2+IL-4+AMG (500 μM)+SIINFEKL, without AMG 8.8±2.3%", "value": "14.7±5.5% and 14.7 +/− 5.5%"}, {"measurement": "IFN-γ single positive cells", "setting": "CD8+ T cells; IL-2+IL-4+AMG (500 μM)+SIINFEKL, without AMG 14.5±5.8%", "value": "42.4±11.5", "unit": "%"}, {"measurement": "IL-13 single positive cells", "setting": "CD8+ T cells; IL-2+IL-4+AMG (500 μM)+SIINFEKL, without AMG 35.7±8.2%", "value": "14.7±8.9", "unit": "%"}, {"measurement": "IFN-γ single positive cells", "setting": "CD8+ T cells; [3]", "value": "0.9 +/− 0.5%"}, {"measurement": "IL-13 single positive cells", "setting": "CD8+ T cells; [3]", "value": "2.3 +/− 1.5%"}, {"measurement": "IFN-γ-positive cells, dose dependence", "setting": "CD8+ T cells; [4]", "value": "increase in IFN-γ-positive cells"}, {"measurement": "Percentage of IL-13-positive cells, dose dependence", "setting": "CD8+ T cells; [4]", "value": "dramatic dose-dependent decrease in the percentage of IL-13-positive cells"}, {"measurement": "Duration of the effects of AMG on CD8+ T cell conversion before the cells recovered", "setting": "CD8+ T cells; initial studies", "value": "up to forty-eight hours"}]}]}
